Series [1] concerns the target T1, RAGE (sRAGE) with β-amyloid as the RAGE ligand (Homo sapiens, UniProt Q15109).
T1 construct: generate soluble RAGE (sRAGE) comprised of the V and C domains
Description: ELISA: inhibition of sRAGE binding to plate-bound β-amyloid. The settings on record: sRAGE 6 nM, hydrochloride salt form. Here is the method:
(§1) The following assay method may be used to identify compounds of Formula (I) or pharmaceutically acceptable salts thereof which are useful as inhibitors of binding of physiological RAGE ligands, such as S100b and β-amyloid, to RAGE.
(§2) S100b, β-amyloid, or CML (500 ng/100 μL/well) in 100 mM sodium bicarbonate/sodium carbonate buffer (pH 9.8) is loaded onto the wells of a NUNC Maxisorp flat bottom 96-well microtitre plate. The plate is incubated at 4° C. overnight. The wells are aspirated and treated with 50 mM imidazole buffer saline (pH 7.2) (with 5 mM CaCl2/MgCl2) containing 1% bovine serum albumin (BSA) (300 μL/well) for 1 h at RT. The wells are aspirated.
(§3) Test compounds are dissolved in nanopure water (concentration: 10-100 μM). DMSO may be used as co-solvent. 25 μL of test compound solution in 4% DMSO is added, along with 75 μL sRAGE (6 nM FAC) to each well and samples are incubated for 1 h at 37° C. The wells are washed several times with 155 mM NaCl pH 7.2 buffer saline and are soaked for several seconds between each wash.
(§4) Non-radioactive detection is performed by adding:
(§5) 10 μL Biotinylated goat F(ab′)2 Anti-mouse IgG. (8.0×10-4 mg/mL, FAC), 5 μL Alk-phos-Streptavidin (3×10-3 mg/mL FAC), 0.42 μL per 5 mL Monoclonal antibody for sRAGE (FAC 6.0×10-3 mg/mL) to 5 mL 50 mM imidazole buffer saline (pH 7.2) containing 0.2% bovine serum albumin and 5 mM CaCl2. The mixture is incubated for 30 minutes at RT.
(§6) 100 μL of complex is added to each well and incubation is allowed to proceed at rt for 1 h. Wells are washed several times with wash buffer and soaked several seconds between each wash. 100 μL 1 mg/mL (pNPP) in 1 M diethanolamine (pH adjusted to 9.8 with HCl) is added. Color is allowed to develop in the dark for 30 min to 1 h at rt. The reaction is quenched with 10 μL of stop solution (0.5-1.0 N NaOH in 50% ethanol) and the absorbance is measured spectrophotometrically with a microplate reader at 405 nm.
(§7) IC50 (μM) of in the ELISA assay represents the concentration of compound at which 50% signal has been inhibited.
For orientation: In an ELISA, binding on a coated surface is turned into a signal by an enzyme label.

Series [2] deals with T2, RAGE (sRAGE) with S100b as the RAGE ligand (Homo sapiens, UniProt Q15109).
T2 construct: generate soluble RAGE (sRAGE) comprised of the V and C domains
T2 sequence (Q15109 23-342 limits assumed): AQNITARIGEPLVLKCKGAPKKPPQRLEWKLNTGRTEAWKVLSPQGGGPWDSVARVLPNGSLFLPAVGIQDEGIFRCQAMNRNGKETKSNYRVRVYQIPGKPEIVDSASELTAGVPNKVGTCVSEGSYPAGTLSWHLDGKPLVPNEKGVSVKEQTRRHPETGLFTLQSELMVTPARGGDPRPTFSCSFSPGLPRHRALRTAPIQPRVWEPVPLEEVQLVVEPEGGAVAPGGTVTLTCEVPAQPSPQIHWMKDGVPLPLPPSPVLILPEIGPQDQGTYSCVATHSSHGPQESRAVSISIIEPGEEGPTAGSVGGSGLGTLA
Description: ELISA: inhibition of sRAGE binding to plate-bound S100b. The settings on record: sRAGE 6 nM, hydrochloride salt form. Here is the method:
as §1, §2, §3, §4, §5, §6, §7

A short description of series [3]: Pharmacokinetic screening in rats, brain and plasma concentrations at 6 hour time point. In kind it is in vivo. The settings on record: male, Sprague Dawley, rat, 5 mg/kg oral (PO), 6 hour time point; for concentration at 6 h: 2% Tween 80 in distilled water. As to the method: Pharmacokinetic screening in rats was performed on various compounds to measure brain and plasma concentrations at 6 hour time point.
The parameters for the pharmacokinetic protocol were as follows.
Amount of compound: 5 mg/kg
Species: Rat; Strain: Sprague Dawley; Sex: Male
Average body weight at dose: weight ranged from 271 to 423 grams
Average age at dose: age ranged from 9 to 14 weeks
Diet Status Overnight fasting
Number of Animals (n) for each time point: 2
Formulation: 2% Tween 80 in distilled water
Each formulation was administered once by oral gavage. The dose volume was 5 mL/kg for all animals. The actual volume administered to each animal was calculated and adjusted based on the most recent body weight.
Blood samples (approximately 300 μL whole blood) at (1, 2, and 4 h) was collected from each animal via tail vein except for terminal blood samples. Terminal blood (6 h) samples were collected via cardiac puncture. All samples were collected into tubes containing lithium heparin (Multivette 600 LH-Gel, Sarstedt, Newton, N.C., USA). Following collection, the tubes were placed in refrigerator (maximum 30 minutes) or until centrifugation under refrigeration (at 2 to 8° C.) at 1500 g for approximately 15 minutes. Each harvested plasma sample was then transferred into 1.2 mL polypropylene tubes, on the 96-Well Plate according to the 96-Well Plate plasma sample map and kept in freezer. Plasma samples were then analyzed for test substances.
Brain samples were collected immediately after the animals were euthanized at designated time points. Brain samples were rinsed with saline, blotted dry, and weighed. Brain samples were placed into individual containers and kept in freezer (−20° C.). Brain samples were then analyzed for test articles.
After analysis, all the plasma results are reported as ng/mL and brain sample results are reported as ng/g. In the table below, “ND” stands for not determined and “NA” stands for not applicable.

Counter-ions that a name gives are not always drawn. Like-named read-outs stand apart in the source and are kept apart here.

T1 sequence (Q15109 23-342 limits assumed): as above

Usually IC50 stands for the concentration that inhibits the measured activity by half. `CCCCc1nc(-c2ccc(OC[C@H](O)CN(C)C)cc2)cn1-c1ccc(Oc2ccc(Cl)cc2)cc1` [Example 1, (R)-1-(4-{2-butyl-1-[4-(4-chloro-phenoxy)-phenyl]-1H-imidazol-4-yl}-phenoxy)-3-dimethylamino-propan-2-ol dihydrochloride]: the IC50 in series [1] amounted to 0.85 µM; in series [2] it was 0.66 µM. Besides, the concentration at 6 h in series [3] (brain, read-out: Brain concentration) was found to be 626 ng/g; in series [3] (plasma, read-out: Plasma concentration), 18 ng/mL. Besides, the Kp at 6 h in series [3] (brain/plasma ratio, read-out: B/P Ratio) is 34.1.
